From patent US5202437A, “3-pyrrolidinylthio-1-azabicyclo(3.2.0)-hept-2-ene-2-carboxylic acid compounds” (Fujisawa Pharmaceutical Company, Ltd., priority 1988, dated 1993)
Values after ≈ are worked out from the molar mass of the structure shown.

Test system: P. aeruginosa 26
Assay: in vitro Antimicrobial Activity (two-fold agar-plate dilution method)
Format: cell-based
Conditions: Pseudomonas aeruginosa, heart infusion agar, 10^6 viable cells per ml, 37° C. for 20 hours, read-out: minimal inhibitory concentration (MIC)
Method: in vitro Antimicrobial Activity was determined by the two-fold agar-plate dilution method as described blow.
One loopful of an overnight culture of a test strain in Trypticase-soy broth (10^6 viable cells per ml) was streaked on heart infusion agar (HI-agar) containing graded concentrations of the test compound, and the minimal inhibitory concentration (MIC) was expressed in terms of μg/ml after incubation at 37° C. for 20 hours.
The compound of Example 2.

MIC: 0.39 µg/mL (≈ 0.95 µM)
Compound: C[C@@H](O)[C@H]1C(=O)N2C(C(=O)O)=C(S[C@@H]3CN[C@H](CN4CCNCC4)C3)[C@H](C)[C@H]12 [Example 2, (4R,5S,6S)-6-[(1R)-1-hydroxyethyl]-4-methyl-7-oxo-3-[(2S,4S)-2-(piperazin-1-yl)methylpyrrolidin-4-yl]thio-1-azabicyclo[3.2.0]hept-2-ene-2-carboxylic acid]
